Reference: PubChem BioAssay (NCI)
Several values for one entry are separate records, joined by “and”; a condition that tells them apart may be missing. Identical values can stand only once.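 Growth conditions: 96-well plates. Treatment: test compound, 48 hours, 5 concentrations. Analysis: linear interpolation between bracketing concentrations; unreached endpoints set to highest concentration. GI50 = concentration required for 50% inhibition of growth. TGI: total growth inhibition.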

Test system: SK-MEL-28 melanoma
Experiment: NCI anticancer screen, dose series, 48 h

First: Nc1ccccc1O.O.O=C(O)C1[O][Sb][O]C1C(=O)O (centres undefined)
Second: O=C(c1ccco1)c1c(C(F)(F)F)n([O-])c2ccc(C(F)(F)F)cc2[n+]1=O
The GI50 of the first is 14-fold higher: 10.2 µM for the first, 0.717 µM for the second.

Going from CC(C)CC(C/C=C1/CC(CO)(COC(=O)C(C)(C)C)OC1=O)CC(C)C (centres undefined) to CC1(C)CN=C(NN=C(/C=C/c2ccc(C(F)(F)F)cc2)/C=C/c2ccc(C(F)(F)F)cc2)NC1, the GI50 falls from 28.7 µM to 1.64 µM (18-fold).

Work on O=C(Nc1cc(Nc2ncccc2-c2ncnc3nc[nH]c23)ccc1F)c1cc(C(F)(F)F)cc(C(F)(F)F)c1 yielded a GI50 of 0.34 µM.

Compared with Nc1ccccc1O.O.O=C(O)C1[O][Sb][O]C1C(=O)O (centres undefined), O=C(c1ccco1)c1c(C(F)(F)F)n([O-])c2ccc(C(F)(F)F)cc2[n+]1=O is 13-fold lower in TGI: 24.6 µM for the first, 1.91 µM for the second.

Going from O=C(Nc1cc(Nc2ncccc2-c2ncnc3nc[nH]c23)ccc1F)c1cc(C(F)(F)F)cc(C(F)(F)F)c1 to CC1(C)CN=C(NN=C(/C=C/c2ccc(C(F)(F)F)cc2)/C=C/c2ccc(C(F)(F)F)cc2)NC1, the TGI rises from 1.68 µM to 3.25 µM (1.9-fold).

OC(c1cc(-c2ccc(C(F)(F)F)cc2)nc(C(F)(F)F)c1)C1CCCCN1 (centres undefined) was tested, and the GI50 was 1.83 µM and 2.55 µM.

With OC(c1cc(-c2ccc(C(F)(F)F)cc2)nc(C(F)(F)F)c1)C1CCCCN1 (centres undefined) the TGI was 3.27 µM and 5.97 µM.
With CC(C)CC(C/C=C1/CC(CO)(COC(=O)C(C)(C)C)OC1=O)CC(C)C (centres undefined) the TGI was 44.7 µM and 20.8 µM.

Test system: HOP-62 NSCLC
Experiment: NCI anticancer screen, dose series, 48 h

Compared with COC(=O)C1=COC(C)C2CN3CCc4c([nH]c5ccccc45)C3CC12 (centres undefined), COC(=O)c1cc2c(o1)-c1nccc3c1c(nc1ccccc13)C2=O is lower in TGI: greater than 100 µM for the first, 11 µM for the second.

Going from O=C(NCc1ccc(Cn2c(=O)sn(-c3ccccc3)c2=O)cc1)OCc1ccc2cccc(O)c2n1 to O=C(/C(=C\c1c(-c2ccccc2)[nH]c2ccccc12)S(=O)(=O)c1ccccc1)c1ccccc1, the TGI rises from 3.52 µM to greater than 100 µM.

Going from COC(c1ccc(C(C)(C)C)cc1)(c1ccc(C(C)(C)C)cc1)c1ccc(C(C)(C)C)cc1 to COc1ccc(-c2nccn2-c2ccc(OC)cc2)cc1, the TGI falls from greater than 100 µM to 74.4 µM.

Compared with CC(C)c1[nH]nc2c1N=C(c1ccccc1Cl)c1cc([N+](=O)[O-])ccc1N2, CCCc1cc(=O)n2c(C(=O)Nc3ccc(Cl)cc3C)c(C(=O)Nc3ccc(F)cc3)sc2n1 is lower in TGI: greater than 25 µM for the first, 3.95 µM for the second.

Going from Nc1cc2c(cc1Br)[nH]c(=O)c1ccccc12 to N[C@H](CCC(=O)N[C@@H](Cc1c[nH]c2ccccc12)C(=O)O)C(=O)O, the TGI rises from 13.3 µM to greater than 100 µM.

O=C(/C=C/c1ccccc1)c1ccccc1 and Nc1ccccc1O.O.O=C(O)C1[O][Sb][O]C1C(=O)O (centres undefined) cannot be ordered by TGI: greater than 10 µM for the first, 35 µM for the second.

First: CC(C)[C@H](O)C(=O)N[C@@H](C)C(=O)N[C@@H]1C(=O)N(C)CCc2ccccc21
Second: CO[C@H]1Nc2c(ccc(C)c2O)C(=O)N2C=C(/C=C/C(N)=O)C[C@@H]12
The TGI of the first is higher: greater than 100 µM for the first, 0.0386 µM for the second.

Going from C=CC(=O)N1CN(C(=O)C=C)CN(C(=O)C=C)C1 to C#CCOc1cccc(Nc2ncnc3c(NC(=O)C=C)cccc23)c1, the TGI rises from 48.1 µM to greater than 100 µM.

COc1ccc(-c2cnnn2-c2nonc2-n2cccc2)cc1 and COc1ccc(-c2nc(-c3cc(OC)cc(OC)c3)[nH]c2-c2ccc(OC)cc2)cc1 cannot be ordered by TGI: greater than 83.1 µM for the first, greater than 100 µM for the second.

COc1ccc(C(=O)c2cc(OC)c(OC)c(OC)c2)cc1OC and CCNC(=O)/C(=C/c1ccc(OC)cc1)c1cc(OC)c(OC)c(OC)c1 cannot be ordered by TGI: greater than 100 µM for the first, greater than 100 µM for the second.

First: CN(C)CCNCCN
Second: CC1(C)CN=C(NN=C(/C=C/c2ccc(C(F)(F)F)cc2)/C=C/c2ccc(C(F)(F)F)cc2)NC1
The TGI of the first is higher: greater than 100 µM for the first, 3.56 µM for the second.

First: O=C(c1ccco1)c1c(C(F)(F)F)n([O-])c2ccc(C(F)(F)F)cc2[n+]1=O
Second: O=C(Nc1cc(Nc2ncccc2-c2ncnc3nc[nH]c23)ccc1F)c1cc(C(F)(F)F)cc(C(F)(F)F)c1
The TGI of the first is lower: 2.95 µM for the first, greater than 10 µM for the second.

Going from O=C(NCc1ccc(Cn2c(=O)sn(-c3ccccc3)c2=O)cc1)OCc1ccc2cccc(O)c2n1 to O=C(/C(=C\c1c(-c2ccccc2)[nH]c2ccccc12)S(=O)(=O)c1ccccc1)c1ccccc1, the GI50 rises from 1.55 µM to greater than 100 µM.

Compared with CC(C)c1[nH]nc2c1N=C(c1ccccc1Cl)c1cc([N+](=O)[O-])ccc1N2, COC(=O)c1cc2c(o1)-c1nccc3c1c(nc1ccccc13)C2=O is 4.7-fold lower in GI50: 6.58 µM for the first, 1.4 µM for the second.

First: Nc1cc2c(cc1Br)[nH]c(=O)c1ccccc12
Second: N[C@H](CCC(=O)N[C@@H](Cc1c[nH]c2ccccc12)C(=O)O)C(=O)O
The GI50 of the first is lower: 3.71 µM for the first, greater than 100 µM for the second.

Compared with COc1ccc(-c2nccn2-c2ccc(OC)cc2)cc1, COc1ccc(-c2nc(-c3cc(OC)cc(OC)c3)[nH]c2-c2ccc(OC)cc2)cc1 is higher in GI50: 22 µM for the first, greater than 100 µM for the second.

Going from CC(C)[C@H](O)C(=O)N[C@@H](C)C(=O)N[C@@H]1C(=O)N(C)CCc2ccccc21 to Nc1ccccc1O.O.O=C(O)C1[O][Sb][O]C1C(=O)O (centres undefined), the GI50 falls from greater than 100 µM to 17.6 µM.

Going from C=CC(=O)N1CN(C(=O)C=C)CN(C(=O)C=C)C1 to CCCc1cc(=O)n2c(C(=O)Nc3ccc(Cl)cc3C)c(C(=O)Nc3ccc(F)cc3)sc2n1, the GI50 falls from 12.3 µM to 1.54 µM (8-fold).

Going from COc1ccc(-c2cnnn2-c2nonc2-n2cccc2)cc1 to C#CCOc1cccc(Nc2ncnc3c(NC(=O)C=C)cccc23)c1, the GI50 rises from 0.34 µM to 27.8 µM (82-fold).

O=C(c1ccco1)c1c(C(F)(F)F)n([O-])c2ccc(C(F)(F)F)cc2[n+]1=O and O=C(Nc1cc(Nc2ncccc2-c2ncnc3nc[nH]c23)ccc1F)c1cc(C(F)(F)F)cc(C(F)(F)F)c1 are within 1.5-fold of each other in GI50: 1.47 µM for the first, 1.15 µM for the second.

Work on CC1(C)CN=C(NN=C(/C=C/c2ccc(C(F)(F)F)cc2)/C=C/c2ccc(C(F)(F)F)cc2)NC1 yielded a GI50 of 1.93 µM.

In the case of COc1ccc(-c2ccc3c(N4CCOC[C@@H]4C)nc(N4CCOC[C@@H]4C)nc3n2)cc1CO, the GI50 is reported as 0.00514 µM and 0.028 µM.
For OC(c1cc(-c2ccc(C(F)(F)F)cc2)nc(C(F)(F)F)c1)C1CCCCN1 (centres undefined), the GI50 was 1.75 µM and 2.13 µM.
CC(C)CC(C/C=C1/CC(CO)(COC(=O)C(C)(C)C)OC1=O)CC(C)C (centres undefined) was tested, and the GI50 was 10.8 µM and 1.92 µM.

With COc1ccc(-c2ccc3c(N4CCOC[C@@H]4C)nc(N4CCOC[C@@H]4C)nc3n2)cc1CO the TGI was 1.65 µM and 0.527 µM.
OC(c1cc(-c2ccc(C(F)(F)F)cc2)nc(C(F)(F)F)c1)C1CCCCN1 (centres undefined) was tested, and the TGI was 3.18 µM and 4.75 µM.
CC(C)CC(C/C=C1/CC(CO)(COC(=O)C(C)(C)C)OC1=O)CC(C)C (centres undefined) was tested, and the TGI was 31.7 µM and 20.1 µM.
